Ten compounds from ChEMBL document CHEMBL1201862, “PubChem BioAssay data set” (2004) can be followed below.

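Five concentrations, 48 hours, 96-well plates. GI50: concentration for 50% inhibition of growth.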 Calls of active or inactive are those of the source. No stated cut-off is given here; in the data, active = GI50 up to about 1.1 µM and inactive = higher.

Some test systems named below: U-251; K562; CAKI-1; OVCAR-8; MDA-MB-231; OVCAR-3; UO-31; 786-0; MCF7; KM12; COLO 205; SF-539; HOP-62; NCI-H23; HCT-116; UACC-62; SK-MEL-2; RPMI-8226; OVCAR-4; SK-OV-3.
Holding throughout (assay): NCI-60 cell line screen, 48 h

Take `COc1nc(N)c(NC2OC(CO)C(O)C2O)c(=O)[nH]1` (configuration not stated): the GI50 in the test with U-251, in the test on K562, in the test with CAKI-1, in the test with OVCAR-8, in the test with MDA-MB-231 and in the test on OVCAR-3 was > 100 µM (inactive) each time. Further, the GI50 in the test on UO-31, in the test on 786-0, with MCF7, with KM12, in the test on COLO 205 and with SF-539 was > 100 µM (inactive) in each case. Besides, the GI50 with HOP-62, in the test with NCI-H23, in the test with HCT-116, with UACC-62, in the test on SK-MEL-2 and in the test on RPMI-8226 was > 100 µM (inactive) in each case. The GI50 with OVCAR-4 and with SK-OV-3 was > 100 µM (inactive) throughout.
With `COc1cc(S(=O)(=O)Nc2ccc(-c3csc(/N=C\c4cccs4)n3)cc2)ccc1Cl`, the GI50 was 42.9 µM (inactive) in the test on K562; > 100 µM (inactive) with CAKI-1; 87.5 µM (inactive) with OVCAR-8; 87.7 µM (inactive) in the test on MDA-MB-231; 54.6 µM (inactive) in the test on OVCAR-3; 45.5 µM (inactive) with UO-31. Further, the GI50 in the test on 786-0 is 59.3 µM (inactive); with MCF7 it was 16.5 µM (inactive); with COLO 205, 32.5 µM (inactive); in the test with SF-539, 39.7 µM (inactive); with HOP-62, 67 µM (inactive); with NCI-H23, 53.1 µM (inactive). Further, the GI50 in the test with HCT-116 was 37.4 µM (inactive); in the test with UACC-62 it was 23.3 µM (inactive); in the test with SK-MEL-2, 96.6 µM (inactive); in the test on RPMI-8226, 29 µM (inactive); in the test on OVCAR-4 it was > 100 µM (inactive); in the test on SK-OV-3 it was > 100 µM (inactive).
With `O=c1cc(NNc2ccccc2F)[nH]c(=O)[nH]1`, the GI50 in the test on U-251 was 17.7 µM (inactive); in the test with K562, 21.8 µM (inactive); with CAKI-1 it was 13 µM (inactive); in the test on MDA-MB-231, 16.3 µM (inactive); in the test with OVCAR-3 it was 17.7 µM (inactive); in the test on UO-31, 12.2 µM (inactive). Moreover, the GI50 with 786-0 is 15.3 µM (inactive); with MCF7 it was 6.61 µM (inactive); with KM12, 15.3 µM (inactive); with COLO 205, 19.2 µM (inactive); in the test on SF-539 it was 16.8 µM (inactive); in the test with NCI-H23, 17.3 µM (inactive). For the same compound, the GI50 is 16.9 µM (inactive) in the test with HCT-116; 17.1 µM (inactive) in the test with UACC-62; 16.7 µM (inactive) with SK-MEL-2; 17.8 µM (inactive) with RPMI-8226; 17.7 µM (inactive) with OVCAR-4; 21.1 µM (inactive) with SK-OV-3.
On to `Cc1cccc(Cl)c1NC(=O)/C=C/c1ccccc1`, for which the GI50 was 87.7 µM (inactive) with U-251; > 100 µM (inactive) in the test with K562; 76.9 µM (inactive) in the test on CAKI-1; 26.1 µM (inactive) in the test on OVCAR-8; 32.4 µM (inactive) with MDA-MB-231; > 100 µM (inactive) with OVCAR-3. Also, the GI50 with 786-0 is 36.3 µM (inactive); with MCF7, 32.5 µM (inactive); in the test with KM12, 74.5 µM (inactive); in the test on COLO 205, > 100 µM (inactive); in the test with SF-539, 44.8 µM (inactive); with HOP-62, 74.6 µM (inactive). In addition, the GI50 was > 100 µM (inactive) in the test with NCI-H23; 39.4 µM (inactive) in the test on HCT-116; > 100 µM (inactive) in the test with UACC-62; > 100 µM (inactive) in the test on SK-MEL-2; 32.3 µM (inactive) in the test with RPMI-8226; 26.9 µM (inactive) with OVCAR-4. The GI50 in the test on SK-OV-3 is 37.3 µM (inactive).
As to `Cc1cccc(C)c1NC(=O)/C=C/c1ccccc1`, the GI50 in the test with U-251 is > 100 µM (inactive); in the test on K562, > 100 µM (inactive); with CAKI-1 it was > 100 µM (inactive); in the test with OVCAR-8, 73.1 µM (inactive); in the test on MDA-MB-231 it was > 100 µM (inactive); in the test with OVCAR-3, > 100 µM (inactive). Besides, the GI50 with 786-0 is > 100 µM (inactive); with MCF7, > 100 µM (inactive); in the test with KM12, > 100 µM (inactive); with COLO 205 it was > 100 µM (inactive); with SF-539 it was > 100 µM (inactive); in the test on HOP-62, 50.1 µM (inactive). In addition, the GI50 in the test with NCI-H23, in the test on HCT-116, with UACC-62, with SK-MEL-2, with RPMI-8226 and in the test with OVCAR-4 was > 100 µM (inactive) each time. The GI50 with SK-OV-3 is > 100 µM (inactive).
Consider `CCN(CC)P1(=S)Oc2ccc3ccccc3c2-c2c(ccc3ccccc23)O1`, for which the GI50 in the test on U-251, with K562, in the test with CAKI-1, in the test with OVCAR-8, in the test with MDA-MB-231 and with OVCAR-3 was > 100 µM (inactive) each time. The GI50 with UO-31 is > 100 µM (inactive); with 786-0 it was > 100 µM (inactive); in the test on MCF7, > 100 µM (inactive); with KM12, 5 µM (inactive); in the test with COLO 205 it was > 100 µM (inactive); in the test on SF-539, > 100 µM (inactive). Moreover, the GI50 was > 100 µM (inactive) with HOP-62; > 100 µM (inactive) in the test with NCI-H23; 83 µM (inactive) in the test with HCT-116; > 100 µM (inactive) in the test on UACC-62; > 100 µM (inactive) with SK-MEL-2; > 100 µM (inactive) in the test with RPMI-8226. Further, the GI50 in the test on OVCAR-4 is 99.3 µM (inactive); in the test with SK-OV-3 it was > 100 µM (inactive).
With `Cc1cc(NC(=O)NC(=O)c2ccccc2N)ccc1Oc1ncc(Br)cn1`, the GI50 in the test on U-251 is 0.0141 µM (active); with K562, < 0.01 µM (active); in the test on CAKI-1 it was < 0.01 µM (active); with OVCAR-8, 0.0217 µM (active); in the test with MDA-MB-231 it was < 0.01 µM (active); with OVCAR-3, < 0.01 µM (active). Moreover, the GI50 in the test on UO-31 was 0.0535 µM (active); in the test with 786-0, < 0.0119 µM (active); with MCF7 it was < 0.01 µM (active); with KM12 it was < 0.0105 µM (active); with COLO 205 it was < 0.0104 µM (active); in the test with SF-539, < 0.011 µM (active). Also, the GI50 with HOP-62 was 0.0118 µM (active); with NCI-H23, 0.0125 µM (active); in the test on HCT-116, < 0.0124 µM (active); in the test on UACC-62, 0.0347 µM (active); in the test on SK-MEL-2, < 0.01 µM (active); with RPMI-8226, 0.025 µM (active). For the same compound, the GI50 in the test with OVCAR-4 was 4.78 µM (inactive); with SK-OV-3, 0.0103 µM (active).
As for `Cc1nc2sc3ccccc3n2c(=O)c1/N=N/c1ccc(Br)cc1`, the GI50 in the test with U-251 was > 100 µM (inactive); in the test on K562 it was 81.1 µM (inactive); in the test on CAKI-1 it was > 100 µM (inactive); with OVCAR-8, > 100 µM (inactive); in the test with MDA-MB-231 it was 60.1 µM (inactive); in the test on OVCAR-3, > 100 µM (inactive). Moreover, the GI50 was > 100 µM (inactive) with 786-0; 81.3 µM (inactive) in the test on MCF7; > 100 µM (inactive) in the test with KM12; > 100 µM (inactive) with COLO 205; > 100 µM (inactive) in the test on SF-539; > 100 µM (inactive) in the test on HOP-62. Also, the GI50 in the test on NCI-H23 is > 100 µM (inactive); in the test on HCT-116, > 100 µM (inactive); in the test with UACC-62 it was > 100 µM (inactive); with SK-MEL-2 it was 81.5 µM (inactive); in the test on RPMI-8226, 71.3 µM (inactive); with OVCAR-4 it was 71.3 µM (inactive). For the same compound, in the test with SK-OV-3, the GI50 was > 100 µM (inactive).
On to `Cc1c(C)c2c(c(N)c1C#N)C(=O)N(N)C2=O`, for which the GI50 in the test with U-251, in the test with K562, with CAKI-1, in the test on OVCAR-8, in the test on MDA-MB-231 and in the test with OVCAR-3 was > 100 µM (inactive) each time. In addition, the GI50 with UO-31 is 93.3 µM (inactive); in the test with 786-0, 87.9 µM (inactive); in the test with MCF7, > 100 µM (inactive); in the test with KM12, > 100 µM (inactive); in the test on COLO 205 it was > 100 µM (inactive); in the test on SF-539, > 100 µM (inactive). Further, the GI50 was > 100 µM (inactive) with NCI-H23; 84.9 µM (inactive) in the test on HCT-116; > 100 µM (inactive) in the test on UACC-62; > 100 µM (inactive) in the test on SK-MEL-2; > 100 µM (inactive) in the test on RPMI-8226; > 100 µM (inactive) in the test with OVCAR-4. The GI50 in the test with SK-OV-3 was > 100 µM (inactive).
As to `CC(C)c1c(O[Si](C(C)C)(C(C)C)C(C)C)cc2c(c1O)CC[C@H]1C(C)(C)CCC[C@]21C`, the GI50 with U-251 was > 100 µM (inactive); in the test on K562, 65.6 µM (inactive); in the test with CAKI-1, > 100 µM (inactive); with OVCAR-8 it was > 100 µM (inactive); in the test with MDA-MB-231, > 100 µM (inactive); in the test on OVCAR-3 it was > 100 µM (inactive). In addition, the GI50 in the test with UO-31, with 786-0, in the test with MCF7, in the test on KM12, in the test on COLO 205 and in the test with SF-539 was > 100 µM (inactive) in each case. In addition, the GI50 in the test with HOP-62 was > 100 µM (inactive); in the test on NCI-H23 it was 97.5 µM (inactive); in the test on HCT-116 it was > 100 µM (inactive); in the test with UACC-62, > 100 µM (inactive); in the test with SK-MEL-2 it was > 100 µM (inactive); in the test on RPMI-8226 it was 45.7 µM (inactive). The GI50 in the test with OVCAR-4 and with SK-OV-3 was > 100 µM (inactive) in each case.
